Test: Prevention of discoloration of EGCG solutions (absorbance at 492 nm)
Format: physicochemical
Details: for protection of EGCG from discoloration by reducing agent: further experiments at the observed pH ranges (data not shown)
Experimental: Discoloration was measured using a spectrophotometer at a fixed wavelength of 492 nm. More specifically, solutions of EGCG (2 mM) and NAC (4 mM) were prepared in McIlvaine buffer at various pH levels in 1.0 increments between pH 3.0 to pH 7.0. A control experiment was set up without NAC but otherwise identical conditions. The so prepared solutions were incubated at 55° C. and the discoloration was measured at 492 nm over the next 15 days.

Row | protection of EGCG from discoloration by reducing agent | discoloration measured at 492 nm (EGCG (2 mM) and NAC (4 mM) in McIlvaine buffer, pH levels of less than 6.0, 55° C., over 15 days, versus control without NAC) | SMILES
1 | prevented discoloration | substantially reduced | CC(=O)N[C@@H](CS)C(=O)O [NAC, N-acetyl cysteine]
2 | prevented discoloration |  | N[C@@H](CCC(=O)N[C@@H](CS)C(=O)NCC(=O)O)C(=O)O [glutathione]

Row | SMILES | protection of EGCG from discoloration by reducing agent | discoloration measured at 492 nm (EGCG (2 mM) and NAC (4 mM) in McIlvaine buffer, pH levels of less than 6.0, 55° C., over 15 days, versus control without NAC)
3 | N[C@@H](CS)C(=O)O [cysteine] | failed to provide significant protection from discoloration | 

Source: patent US20120142947A1, “Stabilized 3-Hydroxyflavan Compositions and Methods Therefor” (priority 2005, published 2012)
